Experiment [1] addresses T1, human adenosine A1 receptors (Homo sapiens, UniProt P30542).
T1 construct: expressed in transfected cells; host or cells: CHO-K1
T1 sequence (P30542 1-326): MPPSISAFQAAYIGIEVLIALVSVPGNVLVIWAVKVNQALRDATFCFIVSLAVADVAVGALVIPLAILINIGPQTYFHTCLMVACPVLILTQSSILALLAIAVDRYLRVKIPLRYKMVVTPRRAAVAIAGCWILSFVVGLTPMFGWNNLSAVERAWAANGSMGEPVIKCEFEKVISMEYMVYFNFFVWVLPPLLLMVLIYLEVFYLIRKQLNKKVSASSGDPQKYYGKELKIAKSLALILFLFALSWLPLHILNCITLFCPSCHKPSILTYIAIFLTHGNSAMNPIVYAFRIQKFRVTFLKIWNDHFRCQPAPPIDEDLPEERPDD
The experiment can be described thus: Adenosine receptor binding: binding affinities at hA1 receptors ([3H]DPCPX displacement). The conditions noted are these: displacement of [3H]DPCPX, membranes of CHO-K1 cells transfected with human A1. An excerpt:
Adenosine Receptor Binding: Binding Affinities at hA1 Receptors
The compounds were examined in an assay measuring in vitro binding to human adenosine A1 receptors by determining the displacement of the adenosine A1 receptor selective radioligand 8-Cyclopentyl-1,3-dipropylxanthine ([^3H]DPCPX) using standard techniques. See, for example, Lohse M J, et al., (1987), 8-Cyclopentyl-1,3-dipropylxanthine (DPCPX)—a selective high affinity antagonist radioligand for A1 adenosine receptors. Naunyn Schmiedebergs Arch Pharmacol., 336(2):204-10, which is incorporated by reference in its entirety.
Frozen CHO-K1 cells (transfected with a human adenosine A1 recepter expression vector) were homogenized in 130 mL of 50 mM Tris HCl buffer (pH 7.5) containing 10 mM MgCl2, and 0.1 IU/mL adenosine deaminase per pellet using a Ultra-Turrax homogeniser. The resultant homogenate was kept for immediate use in the binding. Binding assays were performed in a total volume of 250 μL, containing [^3H]-DPCPX (3.0 nM), membranes and additional drugs. Total binding was determined using drug dilution buffer (50 mM Tris-HCl pH:7.5, 10 mM MgCl2, 5% DMSO). Non-specific binding was determined using 300 μM N6-cyclohexyladenosine (CHA). Following incubation for 90 minutes at 21° C., assays were terminated by rapid filtration with GF/B filters (presoaked in 0.1% (w/v) polyethylenimine) using a Canberra Packard filtermate 196, washed 3 times with ice-cold Tris-HCl (pH 7.4). Filters were left to dry overnight, and Microscint-0 scintillation fluid was then added to the filters. The filters were then left for at least 2 hours before the radioactivity was assessed using a Canberra Packard TopCount microplate scintillation counter.
To determine the free ligand concentration, three vials were counted with 25 μL of [^3H]DPCPX containing 4 mL of Ultima-Gold MV scintillant on a Beckman LS6500 multi-purpose scintillation counter.
(§1) Data was analysed using a 4 parameter logistical equation and non-linear regression which yields affinity constants (pIC50), and slope parameters:
where E is the quantity of binding and [A] is the competitor concentration. The K, is then determined using the Cheng-Prusoff equation: […]
In general terms: Loss of bound radioactivity is the signal in a displacement assay; it reports binding, not function.

Experiment [2] deals with T2, human adenosine A2A receptors (Homo sapiens, UniProt P29274).
T2 construct: host or cells: HEK-293
The experiment can be described thus: Adenosine receptor binding: binding affinities at hA2A receptors ([3H]CGS-21680 displacement). The conditions noted are these: for pKi: displacement of [3H]CGS-21680, HEK-293 cell membranes; for A2A/A1 selectivity ratio (Ki A2A/Ki A1): ratio of measured Ki values at hA2A and hA1.
Excerpt: Adenosine Receptor Binding: Binding Affinities at hA2A Receptors
The compounds were examined in an assay measuring in vitro binding to human adenosine A2A receptors by determining the displacement of the adenosine A2A receptor selective radioligand 4-[2-[[6-Amino-9-(N-ethyl-β-D-ribofuranuronamidosyl)-9H-purin-2-yl]amino]ethyl]benzenepropanoic acid hydrochloride ([^3H]CGS-21680) using standard techniques. See, for example, Jarvis et al., J Pharmacol Exp Ther., 251(3):888-93, which is incorporated by reference in its entirety.
Frozen HEK-293 cells were homogenized in 65 mL of 50 mM Tris HCl buffer (pH 7.5) containing 10 mM MgCl2, and 0.1 IU/mL adenosine deaminase per pellet using a Ultra-Turrax homogenizer. The resultant homogenate was kept for immediate use in the binding assay.
Binding assays were performed in a total volume of 250 μL, containing [^3H]-CGS21680 (20.0 nM), membranes and additional drugs. Total binding was determined using drug dilution buffer (50 mM Tris-HCl pH 7.5, 10 mM MgCl2, 5% DMSO). Non-specific binding was determined using 300 μM CHA. Following incubation for 90 minutes at 21° C., assays were terminated by rapid filtration with GF/B filters (presoaked in 0.1% (w/v) polyethylenimine) using a Canberra Packard filtermate 196, washed 3 times with ice-cold Tris-HCl (pH 7.4). Filters were left to dry overnight, and Microscint-0 scintillation fluid was then added to the filters. The filters were then left for at least 2 hours before the radioactivity was assessed using a Canberra Packard TopCount microplate scintillation counter.
To determine the free ligand concentration, three vials were counted with 25 μL of [^3H]CGS21680 containing 4 mL of Ultima-Gold MV scintillant on a Beckman LS6500 multi-purpose scintillation counter.
as §1
where E is the quantity of binding and [A] is the competitor concentration. The Ki is then determined using the Cheng-Prusoff equation: […]

In general, pKi refers to the negative decadic logarithm of the Ki, by convention in mol/L. A high value points to a low Ki.

pKi: −log10 of the molar value.

T2 sequence (P29274 whole entry): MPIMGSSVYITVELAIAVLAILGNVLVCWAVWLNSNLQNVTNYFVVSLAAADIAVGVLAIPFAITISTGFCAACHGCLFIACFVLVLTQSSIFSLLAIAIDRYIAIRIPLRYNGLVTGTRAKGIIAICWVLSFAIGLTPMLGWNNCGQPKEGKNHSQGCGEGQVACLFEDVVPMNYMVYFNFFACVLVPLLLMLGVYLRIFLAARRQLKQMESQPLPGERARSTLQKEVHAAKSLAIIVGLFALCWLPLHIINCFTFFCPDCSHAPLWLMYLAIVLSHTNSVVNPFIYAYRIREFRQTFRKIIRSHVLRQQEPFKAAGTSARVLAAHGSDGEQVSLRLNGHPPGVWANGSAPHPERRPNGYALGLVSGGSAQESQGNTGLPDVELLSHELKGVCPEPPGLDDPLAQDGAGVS

For the compound `COc1cc(NS(=O)(=O)O)ccc1Cn1nnc2c(-c3cccs3)nc(N)nc21` [4-[(5-amino-7-(thiophen-2-yl)-3H-[1,2,3]triazolo[4,5-d]pyrimidin-3-yl)methyl]-3-methoxyphenylsulfamic acid], the pKi in experiment [1] is less than 5.00. In experiment [2], the pKi is 5.00 to 6.00 and the “A2A/A1 selectivity ratio (Ki A2A/Ki A1)” value was “F (5 to 10)”.
For `Cc1ccc(-c2nc(N)nc3c2nnn3Cc2cccc(NS(=O)(=O)O)c2)o1` [3-[(5-amino-7-(5-methylfuran-2-yl)-3H-[1,2,3]triazolo[4,5-d]pyrimidin-3-yl)methyl]phenylsulfamic acid], the pKi in experiment [1] was 6.00 to 7.00; in experiment [2], no less than 7.00. Besides, the “A2A/A1 selectivity ratio (Ki A2A/Ki A1)” value in experiment [2] is “H (more than 20)”.
On the same counts, the results for `Nc1nc(-c2cccs2)c2nnn(Cc3cccc(NS(=O)(=O)O)c3)c2n1` [3-[(5-amino-7-(thiophen-2-yl)-3H-[1,2,3]triazolo[4,5-d]pyrimidin-3-yl)methyl]-phenylsulfamic acid] are 5.00 to 6.00, 6.00 to 7.00 and “G (10 to 20)”.
For `COc1cc(Cn2nnc3c(-c4ccccc4)nc(N)nc32)ccc1NS(=O)(=O)O` [4-[(5-amino-7-phenyl-3H-[1,2,3]triazolo[4,5-d]pyrimidin-3-yl)methyl]-2-methoxyphenylsulfamic acid] the same measures were 5.00 to 6.00, 6.00 to 7.00 and “G (10 to 20)”.
In experiment [1], `COc1ccccc1-c1nc(N)nc2c1nnn2Cc1ccc(NS(=O)(=O)O)cc1` [4-[(5-amino-7-(2-methoxyphenyl)-3H-[1,2,3]triazolo[4,5-d]pyrimidin-3-yl)methyl]phenylsulfamic acid] gave a pKi of less than 5.00. Besides, in experiment [2], the pKi was 5.00 to 6.00 and the “A2A/A1 selectivity ratio (Ki A2A/Ki A1)” value is listed as “E (less than 5)”.
On the same counts, the results for `COc1cc(NS(=O)(=O)O)ccc1Cn1nnc2c(-c3ccccc3OC)nc(N)nc21` [4-[(5-amino-7-(2-methoxyphenyl)-3H-[1,2,3]triazolo[4,5-d]pyrimidin-3-yl)methyl]-3-methoxyphenylsulfamic acid] are less than 5.00, 5.00 to 6.00 and “E (less than 5)”.
For `Cc1ccc(Cn2nnc3c(-c4ccccc4)nc(N)nc32)cc1NS(=O)(=O)O` [5-[(5-amino-7-phenyl-3H-[1,2,3,]triazolo[4,5-d]pyrimidin-3-yl)methyl]-2-methylphenylsulfamic acid] the same measures were 6.00 to 7.00, no less than 7.00 and “G (10 to 20)”.
Turning to `Cc1ccc(-c2nc(N)nc3c2nnn3Cc2ccc(NS(=O)(=O)O)c(C)c2)o1` [4-[(5-amino-7-(5-methylfuran-2-yl)-3H-[1,2,3]triazolo[4,5-d]pyrimidin-3-yl)methyl]-2-methylphenylsulfamic acid], in experiment [1], the pKi is 6.00 to 7.00. Further, in experiment [2], the pKi is no less than 7.00 and the “A2A/A1 selectivity ratio (Ki A2A/Ki A1)” value is given as “H (more than 20)”.
For `COc1cc(Cn2nnc3c(-c4ccccc4OC)nc(N)nc32)ccc1NS(=O)(=O)O` [4-[(5-amino-7-(2-methoxyphenyl)-3H-[1,2,3]triazolo[4,5-d]pyrimidin-3-yl)methyl]-2-methoxyphenylsulfamic acid] the same measures were less than 5.00, less than 5.00 and “E (less than 5)”.
For `COc1cc(NS(=O)(=O)O)ccc1Cn1nnc2c(-c3ccccc3)nc(N)nc21` [4-[(5-amino-7-phenyl-3H-[1,2,3]triazolo[4,5-d]pyrimidin-3-yl)methyl]-3-methoxyphenylsulfamic acid] the same measures were less than 5.00, 5.00 to 6.00 and “F (5 to 10)”.
For `COc1cc(Cn2nnc3c(-c4ccco4)nc(N)nc32)ccc1NS(=O)(=O)O` [4-[(5-amino-7-(furan-2-yl)-3H-[1,2,3]triazolo[4,5-d]pyrimidin-3-yl)methyl]-2-methoxyphenylsulfamic acid], in experiment [1], the pKi is less than 5.00. In experiment [2], the pKi was 5.00 to 6.00 and the “A2A/A1 selectivity ratio (Ki A2A/Ki A1)” value is on record as “G (10 to 20)”.
`Nc1nc(-c2cccs2)c2nnn(Cc3ccc(NS(=O)(=O)O)cc3)c2n1` [4-[(5-amino-7-(thiophen-2-yl)-3H-[1,2,3]triazolo[4,5-d]pyrimidin-3-yl)methyl]phenylsulfamic acid]: the pKi in experiment [1] is 5.00 to 6.00; in experiment [2], 6.00 to 7.00. Besides, the “A2A/A1 selectivity ratio (Ki A2A/Ki A1)” value in experiment [2] is given as “G (10 to 20)”.
For `Cc1ccc(Cn2nnc3c(-c4cccs4)nc(N)nc32)cc1NS(=O)(=O)O` [5-[(5-amino-7-(thiophen-2-yl)-3H-[1,2,3]triazolo[4,5-d]pyrimidin-3-yl)methyl]-2-methylphenylsulfamic acid] the same measures were 5.00 to 6.00, no less than 7.00 and “H (more than 20)”.
For `COc1cc(NS(=O)(=O)O)ccc1Cn1nnc2c(-c3ccco3)nc(N)nc21` [4-[(5-amino-7-(furan-2-yl)-3H-[1,2,3]triazolo[4,5-d]pyrimidin-3-yl)methyl]-3-methoxyphenylsulfamic acid] the same measures were less than 5.00, 6.00 to 7.00 and “G (10 to 20)”.
For `Cc1cc(Cn2nnc3c(-c4ccccc4)nc(N)nc32)ccc1NS(=O)(=O)O` [4-[(5-amino-7-phenyl-3H-[1,2,3]triazolo[4,5-d]pyrimidin-3-yl)methyl]-2-methylphenylsulfamic acid] the same measures were 6.00 to 7.00, no less than 7.00 and “H (more than 20)”.
Compound `COc1cc(Cn2nnc3c(-c4cccs4)nc(N)nc32)ccc1NS(=O)(=O)O` [4-[(5-amino-7-(thiophen-2-yl)-3H-[1,2,3]triazolo[4,5-d]pyrimidin-3-yl)methyl]-2-methoxyphenylsulfamic acid] gave a pKi in experiment [1] of 5.00 to 6.00. In addition, in experiment [2], the pKi is 6.00 to 7.00 and the “A2A/A1 selectivity ratio (Ki A2A/Ki A1)” value is “H (more than 20)”.
The compound `Cc1cc(Cn2nnc3c(-c4ccco4)nc(N)nc32)ccc1NS(=O)(=O)O` [4-[(5-amino-7-(furan-2-yl)-3H-[1,2,3]triazolo[4,5-d]pyrimidin-3-yl)methyl]-2-methylphenylsulfamic acid] had a pKi in experiment [1] of 6.00 to 7.00. Besides, in experiment [2], the pKi was no less than 7.00 and the “A2A/A1 selectivity ratio (Ki A2A/Ki A1)” value is listed as “H (more than 20)”.
Consider `Cc1ccc(-c2nc(N)nc3c2nnn3Cc2ccc(NS(=O)(=O)O)cc2)o1` [4-[(5-amino-7-(5-methylfuran-2-yl)-3H-[1,2,3]triazolo[4,5-d]pyrimidin-3-yl)methyl]phenylsulfamic acid], for which, in experiment [1], the pKi is 5.00 to 6.00. Also, in experiment [2], the pKi was no less than 7.00 and the “A2A/A1 selectivity ratio (Ki A2A/Ki A1)” value is given as “H (more than 20)”.

These data come from US20100173914A1, “PHARMACEUTICALS, COMPOSITIONS AND METHODS OF MAKING AND USING THE SAME” (priority 2007, published 2010).
